Assay: Storage stability: appearance, assay/label strength (LS), total impurities/degradation products
Type: physicochemical
Description: In some embodiments, the film-coated tablets were packaged in 75 and 100 mL white HDPE bottles (Lots A and B, respectively, as described in Tables 11A, 11B) with 1 g silica gel desiccant canisters and a polyester fiber coil. The 75 and 100 mL HDPE bottles contained fourteen and twenty eight tablets, respectively. Each HDPE bottle was capped using a white, continuous thread, child-resistant polypropylene screw cap with an […], aluminum-faced line. The packaged tablets (14 and 28 counts) were evaluated for stability at 40° C./75% RH and 25° C./60% RH. Additionally, the 14-count bottles (without cap) were evaluated for stability under open conditions at 40° C./75% RH.
For each of the impact studies, the sofosbuvir/velpatasvir SSD/voxilaprevir SSD tablets were packaged in a designated commercial packaging configuration (28-count, 100 mL HPDE bottle, coil, 1 g desiccant), and stored for 12 weeks at 25° C./60% RH and 40° C./75% RH. Tablets were also packaged in open containers (28-count, 100 mL HPDE bottle without cap) and stored for 4 weeks at 40° C./75% RH and for 1 week at 50° C./92% RH.
The sofosbuvir/velpatasvir SSD/voxilaprevir SSD tablets were packaged in the designated commercial packaging configuration (28-count, 100 mL HPDE bottle, coil, 1 g desiccant), and stored for 6 months at 25° C./60% RH and 40° C./75% RH.

CC(C)OC(=O)C(C)N[P@](=O)(OC[C@H]1O[C@@H](n2ccc(=O)[nH]c2=O)[C@](C)(F)[C@@H]1O)Oc1ccccc1 (stereo in doubt) [Sofosbuvir, (S)-isopropyl 2-(((S)-(((2R,3R,4R,5R)-5-(2,4-dioxo-3,4-dihydropyrimidin-1(2H)-yl)-4-fluoro-3-hydroxy-4-methyltetrahydrofuran-2-yl)methoxy)(phenoxy)phosphoryl)amino)propanoate]
0.0%: Total Imp./Deg. (%) (Batch C tablets, closed 1 g desiccant, 25° C./60% RH, 3 months) | Total Imp./Deg. (%) (Batch C tablets, closed 1 g desiccant, 25° C./60% RH, 6 months) | Total Imp./Deg. (%) (Batch C tablets, closed 1 g desiccant, 30° C./75% RH, 3 months) | Total Imp./Deg. (%) (Batch C tablets, closed 1 g desiccant, 30° C./75% RH, 6 months) | Total Imp./Deg. (%) (Batch C tablets, closed 1 g desiccant, 40° C./75% RH, 1 month) | Total Imp./Deg. (%) (Batch C tablets, closed 1 g desiccant, 40° C./75% RH, 3 months) | Total Imp./Deg. (%) (Batch C tablets, closed 1 g desiccant, 40° C./75% RH, 6 months) | Total Imp./Deg. (%) (Batch C tablets, closed 1 g desiccant, Initial, time 0) | Total Imp./Deg. Products (%) (SOF/VEL SSD/VOX SSD granules (Lot F), glass vials, Initial, 0 months) | total impurities/degradation products (desiccant/packaging study tablets, all conditions, 6 months) | total impurities/degradation products (granules (Lot F), over 6 month storage at 25° C./60% RH and 40° C./75% RH, open and closed) | total impurities/degradation products (packaged Formulation G tablets (Tables 11A, 11B), 40° C./75% RH and 25° C./60% RH for 6 months) | total impurities/degradation products (packaged tablets Batch A, up to 6 months under all conditions) | total impurities/degradation products (packaged tablets Batch D, up to 1 month under all conditions) | total impurities/degradation products (packaged tablets Batches B and C, up to 6 months under all conditions) | total impurities/degradation products (tablet Lots A-D from sub-potent/super-potent VEL SSD and VOX SSD, all conditions) | Total Imp./Deg. (%) (tablets Batch A, 25° C./60% RH, 3 mo) | Total Imp./Deg. (%) (tablets Batch A, 25° C./60% RH, 6 mo) | Total Imp./Deg. (%) (tablets Batch A, 30° C./75% RH, 3 mo) | Total Imp./Deg. (%) (tablets Batch A, 30° C./75% RH, 6 mo) | Total Imp./Deg. (%) (tablets Batch A, 40° C./75% RH, 1 mo) | Total Imp./Deg. (%) (tablets Batch A, 40° C./75% RH, 3 mo) | Total Imp./Deg. (%) (tablets Batch A, 40° C./75% RH, 6 mo) | Total Imp./Deg. (%) (tablets Batch A, Initial, 0 mo) | Total Imp./Deg. (%) (tablets Batch B, 25° C./60% RH, 3 mo) | Total Imp./Deg. (%) (tablets Batch B, 25° C./60% RH, 6 mo) | Total Imp./Deg. (%) (tablets Batch B, 30° C./75% RH, 3 mo) | Total Imp./Deg. (%) (tablets Batch B, 30° C./75% RH, 6 mo) | Total Imp./Deg. (%) (tablets Batch B, 40° C./75% RH, 1 mo) | Total Imp./Deg. (%) (tablets Batch B, 40° C./75% RH, 3 mo) | Total Imp./Deg. (%) (tablets Batch B, 40° C./75% RH, 6 mo) | Total Imp./Deg. (%) (tablets Batch B, Initial, 0 mo) | Total Imp./Deg. (%) (tablets Batch D, 40° C./75% RH, 1 mo) | Total Imp./Deg. (%) (tablets Batch D, Initial, 0 mo) | Total Imp./Deg. (%) (tablets Lot A, 25° C./60% RH Closed, 1 mo) | Total Imp./Deg. (%) (tablets Lot A, 25° C./60% RH Closed, 3 mo) | Total Imp./Deg. (%) (tablets Lot A, 25° C./60% RH Closed, 6 mo) | Total Imp./Deg. (%) (tablets Lot A, 40° C./75% RH Closed, 1 mo) | Total Imp./Deg. (%) (tablets Lot A, 40° C./75% RH Closed, 3 mo) | Total Imp./Deg. (%) (tablets Lot A, 40° C./75% RH Closed, 6 mo) | Total Imp./Deg. (%) (tablets Lot A, 40° C./75% RH Open, 1 mo) | Total Imp./Deg. (%) (tablets Lot A, 40° C./75% RH Open, 3 mo) | Total Imp./Deg. (%) (tablets Lot A, 40° C./75% RH Open, 6 mo) | Total Imp./Deg. (%) (tablets Lot A, Initial, 0 mo) | Total Imp./Deg. (%) (tablets Lot B, 25° C./60% RH Closed, 1 mo) | Total Imp./Deg. (%) (tablets Lot B, 25° C./60% RH Closed, 3 mo) | Total Imp./Deg. (%) (tablets Lot B, 25° C./60% RH Closed, 6 mo)

— patent US10912814B2, “Combination formulation of three antiviral compounds” (priority 2016, dated 2021)
